# Measured values from EP0802730B1, “PESTICIDAL COMPOUNDS” (BTG INTERNATIONAL LIMITED, priority 1995, dated 1996).
# Tested on: Myzus persicae, extremely resistant strain (794Jz)
# Assay: Aphid dip test, resistant strain
# Format: in vivo
# Details: read-out: % mortality corrected for control data
Structure (SMILES),mortality at 40 ppm [%],mortality at 100 ppm [%],mortality at 250 ppm [%]
"CC1(C2=C(O)C(=O)c3ccccc3C2=O)CCCCC1 [Example 25, 2-hydroxy-3-(1'-methylcyclohexyl)-naphthalene-1,4-dione]",10,27,79
"CCC(C)(C)C1=C(O)C(=O)c2ccccc2C1=O [Example 1, 2-(1,1-dimethylpropyl)-3-hydroxynaphthalene-1,4-dione]",–,10,43
"CC(C)(C)C1=C(O)C(=O)c2ccccc2C1=O [Example 3, 2-(t-butyl)-3-hydroxy-naphthalene-1,4-dione]",10,13,87
"CCC(C)(C)C1=C(OC(C)=O)C(=O)c2ccccc2C1=O [Example 2, 2-(1,1-dimethylpropyl)-3-ethanoyloxy-naphthalene-1,4-dione]",–,17,47

# Tested on: resistant strain of whitefly (Ned 1/2)
# Assay: Whitefly vial test, resistant strain Ned 1/2
# Format: in vivo
# Details: Bemisia tabaci, 48 h, read-out: BT (Ned 1/2) (LC50)
# Description: Acetone solutions (0.100 ml) of the test compounds were placed in 10 ml glass vials and evaporated with rotation to deposit a film of the compound. Thirty adult whiteflies were placed inside the vial, then after 60 minutes, the treated insects were transferred onto untreated cotton leaf discs which were kept moist on a bed of agar gel. The temperature was maintained at 25°C and mortality assessed after 48 hours. Three replicates were used at each of 5 to 7 dose levels per compound. LC50 values (ppm solution) were calculated by using a computer software package ("Polo-PC available from LeOra Software, Berkeley, California) (See M.R. Cahill and B. Hackett in Proceedings Brighton Crop Protection Conference, 1992). The test was carried out using a susceptible strain of whitefly (SUD-S) which was collected in Sudan in 1978 from cotton.
# The whitefly activity test with (BT (SUD-S)) was repeated using a resistant strain of whitefly (Ned 1/2).
row,Structure (SMILES),LC50 [µg/mL]
1,"CC(C)(C)C1CCC(C2=C(O)C(=O)c3ccccc3C2=O)CC1 (stereo not drawn) [Compound B, 2-hydroxy-3-(4-t-butylcyclohexyl)-naphthalene-1,4-dione, reference compound]",100
2,"CC1(C2=C(O)C(=O)c3ccccc3C2=O)CCCCC1 [Example 25, 2-hydroxy-3-(1'-methylcyclohexyl)-naphthalene-1,4-dione]",0.1
